Measured values reported in patent US11484576B2, “Methods of promoting corticospinal neuronal outgrowth in neuronal lesions using a pro-regenerative human osteopontin fragment” (THE CHILDREN'S MEDICAL CENTER CORPORATION, priority 2017, dated 2022).

How the values were obtained:
[1] = tested on: mice with T10 lateral hemisection; experiment: Irregular ladder walking after spinal cord T10 lateral hemisection; assay type: in vivo, mouse; details: OPN/IGF1 treated group, T10 hemisection
Method: (§1) Injury Models. […] Briefly, a midline incision was made over the thoracic vertebrae, followed by a T10 laminectomy. The unilateral hemisection was then performed carefully using both scalpel and micro-scissors, avoiding, to the greatest extent, the damage of the spinal cord dura. The muscle layers were then sutured and the skin was secured with wound clips. All mice received post hoc histological analysis and those with spared CST axons (incomplete lateral hemisection) or with significant less CST axons on the contra-lesional side (over lateral hemisection) at the lumbar spinal cord (L3), exemplified in FIG. 9A, were excluded for behavioral analysis.
Virus and Protein Injection.
Irregular Ladder Walking. […] Briefly, the ladder was elevated 30 cm above the ground. […] To prevent animals from learning the pattern, the irregular pattern was changed from trial to trial. All trials were video recorded (Hotshot e64, 100 fps) and paw placement was analyzed twice by blinded observers. Steps with precise placement of the center of the palm on the rung (for both forelimbs and hindlimbs) and digits closed (for forelimbs) were defined as correct steps (hit). All other steps were recorded as errors, which included two types: 1) Miss: when crossing the ladder, the forelimb/hindlimb either completely miss the rung or contact the rung with the wrist/heel instead of the paw; 2) Slip: when crossing the ladder, the mice use a few digits instead of the paw to place on the rungs, causing the subsequent slip on the rungs. The results were expressed as both percentage of total errors and percentage of different placement categories (hit, miss and slip).
(§2) Pharmacological Treatment. […] All behavioral tests were then accomplished between 1-3 hours post administration.

[2] = tested on: mice with T10 lateral hemisection; experiment: Ground walking and treadmill walking after T10 lateral hemisection; assay type: in vivo, mouse; details: i.p.
Method: as §1, §2

[3] = tested on: mice with unilateral photothrombotic stroke; experiment: Single pellet retrieval and irregular ladder walking after unilateral photothrombotic cortical stroke; assay type: in vivo, mouse; details: ischemic mice treated with OPN/IGF1
Source text: The procedure of unilateral photothrombotic stroke was similar to that described elsewhere (Watson et al., 1985; Wahl et al., 2014). Briefly, mice were fixed in a stereotactic frame, with the skull exposed. To unilaterally cover the sensoromotor cortex, the cold light source (Zeiss, CL 1500HAL, 3000K) was positioned over an opaque template with an opening (a circle with a diameter of 2.5 mm) centered at (−0.5, 2.0 mm, anterior and lateral to the bregma) on the cortex contralateral to the preferred paw in the food pellet retrieval task. […] Lesion volumes were calculated when mice brains were fixed at the end point of the experiments.
Irregular Ladder Walking. […] All trials were video recorded (Hotshot e64, 100 fps) and paw placement was analyzed twice by blinded observers. […] All other steps were recorded as errors, which included two types: 1) Miss: when crossing the ladder, the forelimb/hindlimb either completely miss the rung or contact the rung with the wrist/heel instead of the paw; 2) Slip: when crossing the ladder, the mice use a few digits instead of the paw to place on the rungs, causing the subsequent slip on the rungs. The results were expressed as both percentage of total errors and percentage of different placement categories (hit, miss and slip).
Single pellet Retrieval. […] The success rate was calculated as: number of successful retrievals/total attempts per trail *100. […]

injured mice = experiment: Adverse effects of systemic potassium channel blockers in injured mice; assay type: in vivo; details: injured mice treated with OPN/IGF1
Method: Chemicals and Antibodies. For systematic administration (i.p.), Quipazine [Sigma (Q1004), 0.2 mg/kg), SKF-82197 [Tocris (1447) 0.1 mg/kg], and 8-OH-DPAT [Tocris (0529), 0.1 mg/kg), 4AP [Sigma (275875), 1 mg/kg, 3 mg/kg), 4AP-MeOH [Santa Cruz (sc-267247), (1 mg/kg)] were dissolved in saline. Tamoxifen (Sigma, 10540-29-1) was dissolved in oil. For diphtheria toxin mediated cell ablation, we purchased the diptheria toxin from Sigma (D0564). For immunostaining, the primary antibody used were chicken anti-GFP [Abcam (Cat: ab13970)], rabbit anti-RFP [Abcam (Cat: ab34771)], rabbit anti-PKCγ [Santa Cruz (sc211)], rabbit anti-GFAP [DAKO (Z0334)]; rabbit anti-5-HT [Immunostar (20080)], rabbit-anti-IGFR [Santa Cruz (sc-712)] rabbit-anti-pIGFR[3 [Cell signaling technology (3024)], rabbit-anti-pS6 [Cell signaling technology (4857)], rat anti-CD68 [Bio-Rad (MCA 1957)], and Guinea pig-anti-Vglut1 [Synaptic Systems (135304)].
Pharmacological Treatment. […] A pilot experiment was performed and determined that 4AP (1 mg/kg, 3 mg/kg) and 4AP-MeOH (1 mg/kg) achieved their maximal effects within 1-3 hours post systematic administration (i.p.). […]

## Nc1ccncc1CO [4-AP-MeOH, 4-aminopyridine-3-methanol]
[1]; 1 mg/kg i.p.
  error rate, irregular ladder walking, after 4-AP-MeOH: 30%
[1]
  error rate, irregular ladder walking, before 4-AP-MeOH: about 48%
[2]
  recovery of treadmill walking performance compared to the control: neither 4-AP nor 4-AP-MeOH had significant effects
[3]
  additional effect on single pellet retrieval and irregular ladder walking: further improvements on both assays
Injured mice
  effect and safety compared to 4-AP: significantly better effects with broader safety doses
